Test results from patent US20260022347A1, “TREATMENT AGENT FOR LUNG ADENOCARCINOMAS” (KEIO UNIVERSITY, priority 2022, published 2026).
Entries after “also recorded” stand apart in the source; their conditions may differ.

Assays:
[1] = test system: NKX2-1-negative lung adenocarcinoma organoid strains (KOR189, KOR134); test: Growth of NKX2-1-negative lung adenocarcinoma organoids cultured with C59 (organoid area, micrographs); format: cell-based, human
Text: Porcupine (PORCN) is an acyl transferase localized to the endoplasmic reticulum which performs palmitoylation of Wnt protein. In this experimental example, the therapeutic effect of NKX2-1-negative lung adenocarcinoma was examined using C59 (CAS No. 1243243-89-1), a Porcupine inhibitor.
In addition, the number in the upper left corner of each image indicates the percentage of an area occupied by organoids cultured under each condition when an area occupied by organoids cultured in the absence of Wnt-3A is 1.

[2] = test system: Wnt-dependent (NKX2-1 negative) lung adenocarcinoma organoids, KOR80 and KOR97; test: Tumor area of GFP-labeled lung adenocarcinoma organoids transplanted under the renal capsule of immunodeficient mice; format: in vivo; conditions: 50 mg/kg C59 orally twice a day, 10 days after transplantation and day 30 to 40; kidneys excised day 40; versus vehicle
Text: C59 (CAS No. 1243243-89-1) was used to examine the therapeutic effect of NKX2-1-negative lung adenocarcinoma in vivo.
FIG. 11 is a schematic view showing a schedule of this experiment. GFP-labeled lung adenocarcinoma organoids were transplanted under the renal capsule of immunodeficient mice. As the lung adenocarcinoma organoids, Wnt-dependent (NKX2-1 negative) lung adenocarcinoma organoids, KOR80 and KOR97, and Wnt-independent (NKX2-1-positive) lung adenocarcinoma organoids, KOR20 and KOR98, were used.
For 10 days after transplantation and from day 30 to day 40 after transplantation, 50 mg/kg of C59 or vehicle was administered orally twice a day. Subsequently, the mice were euthanized on day 40 after transplantation, and their kidneys were excised and observed. The tumor area was measured as the area of a GFP-positive region.
In addition, “vehicle” indicates the result of a control given vehicle, and “C59” indicates the result obtained by administering C59. In addition, in FIG. 13, “*” indicates a significant difference at p<0.05, “**” indicates a significant difference at p<0.01, and “N.S.” indicates no significant difference.

[3] = test system: Wnt target genes LGR5 and AXIN2; test: Quantitative RT-PCR of Wnt target genes LGR5 and AXIN2 in organoids cultured with C59; format: cell-based, human
Text: In FIG. 10, the relative values of the expression levels of each gene with respect to the expression level of the GAPDH gene are shown as relative values, with the expression level in the absence of Wnt-3A (−Wnt) set to 1.

[4] = presence of Wnt-3A and C59 (+Wnt+C59)

Cc1cc(-c2ccc(CC(=O)Nc3ccc(-c4cccnc4)cc3)cc2)ccn1 [C59]
growth of NKX2-1-negative lung adenocarcinoma organoids ([1]; absence of Wnt-3A, presence of C59 (-Wnt+C59), KOR189, KOR134): growth inhibition; also recorded: inhibited the growth | growth of NKX2-1-negative lung adenocarcinoma organoids after addition of exogenous Wnt-3A to C59 treatment [1, 4]: counteracted the effect of the C59 treatment | tumor area (GFP-positive region) [2]: significantly reduced the tumor area | expression levels of Wnt target genes (LGR5, AXIN2) ([3]; -Wnt+C59 relative to -Wnt, normalised to GAPDH, KOR189, KOR134, KOR97): reduced the expression levels | expression levels of Wnt target genes after addition of exogenous Wnt-3A to C59 treatment [3, 4]: restoring the expression levels
